Assay results published in ChEMBL document CHEMBL1127225, “Gem-cycloalkyl substituted thiol inhibitors of neutral endopeptidase 24.11. Synthesis via nucleophilic opening of 2,2-spiro--lactones” (Bioorg Med Chem Lett, 1993).

Molecular target: T1, Neprilysin (Rattus norvegicus, UniProt P07861)
T1 sequence (P07861 whole entry): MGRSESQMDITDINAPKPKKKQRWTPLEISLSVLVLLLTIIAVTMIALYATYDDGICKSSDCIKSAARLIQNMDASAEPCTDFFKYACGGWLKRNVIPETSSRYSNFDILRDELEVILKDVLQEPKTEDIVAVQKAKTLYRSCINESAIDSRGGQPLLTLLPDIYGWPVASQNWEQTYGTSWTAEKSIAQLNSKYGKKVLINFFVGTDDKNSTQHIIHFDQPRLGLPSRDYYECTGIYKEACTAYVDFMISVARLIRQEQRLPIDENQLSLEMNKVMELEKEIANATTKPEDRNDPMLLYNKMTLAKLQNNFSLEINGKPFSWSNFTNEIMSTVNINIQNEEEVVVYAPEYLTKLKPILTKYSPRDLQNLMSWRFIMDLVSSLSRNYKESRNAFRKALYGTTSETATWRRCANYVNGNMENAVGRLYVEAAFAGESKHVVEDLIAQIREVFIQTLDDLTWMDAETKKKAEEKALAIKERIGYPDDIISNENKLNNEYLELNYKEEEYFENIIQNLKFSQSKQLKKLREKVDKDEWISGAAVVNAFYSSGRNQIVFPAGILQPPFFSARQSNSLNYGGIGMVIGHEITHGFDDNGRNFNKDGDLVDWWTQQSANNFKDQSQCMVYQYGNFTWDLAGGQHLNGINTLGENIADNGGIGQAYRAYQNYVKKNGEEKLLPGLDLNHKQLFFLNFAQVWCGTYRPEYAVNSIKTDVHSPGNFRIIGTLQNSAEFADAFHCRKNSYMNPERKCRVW
Experiment: The compound was tested for its inhibitory activity against neutral endopeptidase ([…]) in rat kidney

`O=C(O)[C@H]1CCC[C@@H](NC(=O)C2(CS)CCCC2)C1` and `O=C(O)[C@H]1CCC[C@@H](NC(=O)C2(CS)CCCCC2)C1` are within 1.5-fold of each other in IC50: 215 nM for the first, 310 nM for the second.

`O=C(N[C@@H]1CCC[C@H](C(=O)O)C1)C(CS)Cc1ccccc1` (stereo not given in full) and `O=C(O)[C@H](Cc1ccccc1)NC(=O)C1(CS)CCCC1` are within 1.5-fold of each other in IC50: 180 nM for the first, 220 nM for the second.

`COCCOC[C@H](CC1(C(=O)N[C@H]2CC[C@@H](C(=O)O)CC2)CCCC1)C(=O)O` [CANDOXATRILAT] gave an IC50 of 38 nM.
